Source: patent EP1163363B1 (priority 1999, dated 2000)

Experiments:
[1] = target: T1, Yersinia protein tyrosine phosphatase (YOP) (Yersinia enterocolitica, UniProt P15273); assay type: biochemical
T1 construct: purchased Upstate Biotechnology

Src kinase = target: T2, Src kinase (Homo sapiens, UniProt P12931); test: Solution phase FRET assay of Src kinase activity (rhodamine labelled SHPS-1 peptide / SHP2-GFP); assay type: biochemical; details: 10 µM staurosporine added to the reaction prior to Src enzyme; 3 units of Src kinase, 2 hours at 37°C
T2 construct: purchased Upstate Biotechnology
T2 sequence (P12931 whole entry): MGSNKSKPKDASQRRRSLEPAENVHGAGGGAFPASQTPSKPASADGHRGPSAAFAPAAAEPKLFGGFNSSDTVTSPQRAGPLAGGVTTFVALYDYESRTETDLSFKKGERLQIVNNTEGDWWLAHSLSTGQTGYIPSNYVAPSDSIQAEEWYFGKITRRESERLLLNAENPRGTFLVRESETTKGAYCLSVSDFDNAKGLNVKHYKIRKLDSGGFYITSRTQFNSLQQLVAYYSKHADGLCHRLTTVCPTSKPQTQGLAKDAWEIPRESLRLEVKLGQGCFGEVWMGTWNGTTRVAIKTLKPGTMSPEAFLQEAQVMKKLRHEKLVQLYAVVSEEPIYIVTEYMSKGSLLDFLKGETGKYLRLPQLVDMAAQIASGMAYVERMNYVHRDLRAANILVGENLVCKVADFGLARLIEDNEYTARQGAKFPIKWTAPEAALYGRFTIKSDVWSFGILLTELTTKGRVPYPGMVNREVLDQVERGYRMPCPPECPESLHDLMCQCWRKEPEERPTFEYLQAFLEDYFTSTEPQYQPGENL
Method: SHPS-1 peptide labelled with rhodamine is phosphorylated using 3 units of Src kinase (Upstate Biotechnology) in a 40 µl reaction containing 100 µM peptide, 50 mM Tris-HCl pH7.2, 1 mM ATP, 10 mM MgCl2, 10 mM β-mercaptoethanol, 0.1 mg/ml BSA and 0.015%(v/v) Brij 35, over a period of 2 hours at 37°C. Non-phosphorylated control samples are prepared under identical conditions in the absence of the kinase.
SHP2-GFP is diluted to 0.5 µM in assay buffer (50 mM Tris-HCl pH7.2, 10 mM β-mercaptoethanol, 0.5mg/ml BSA, 0.015% Brij 35). 98 µl of this solution is used per assay. Initial readings of the fluorescence of the SHP2-GFP construct are made using 485nm excitation wavelength and 520nm emission wavelength. Rhodamine labelled peptide (2µl of above phosphorylation reactions) is added to the SHP2-GFP solution and formation of FRET followed in real-time by measuring the decrease in fluorescence emission of SHP2-GFP at 520 nm as shown in Figure 13.
Phosphonlation of the peptide is prevented by inhibiting the enzyme, Src, with the potent kinase inhibitor staurosporine. Phosphorylation of the rhodamine labelled SHPS-1 peptide is performed as described above in the presence and absence of 10 µM staurosporine added to the reaction prior to Src enzyme.

T1 sequence (P15273 whole entry): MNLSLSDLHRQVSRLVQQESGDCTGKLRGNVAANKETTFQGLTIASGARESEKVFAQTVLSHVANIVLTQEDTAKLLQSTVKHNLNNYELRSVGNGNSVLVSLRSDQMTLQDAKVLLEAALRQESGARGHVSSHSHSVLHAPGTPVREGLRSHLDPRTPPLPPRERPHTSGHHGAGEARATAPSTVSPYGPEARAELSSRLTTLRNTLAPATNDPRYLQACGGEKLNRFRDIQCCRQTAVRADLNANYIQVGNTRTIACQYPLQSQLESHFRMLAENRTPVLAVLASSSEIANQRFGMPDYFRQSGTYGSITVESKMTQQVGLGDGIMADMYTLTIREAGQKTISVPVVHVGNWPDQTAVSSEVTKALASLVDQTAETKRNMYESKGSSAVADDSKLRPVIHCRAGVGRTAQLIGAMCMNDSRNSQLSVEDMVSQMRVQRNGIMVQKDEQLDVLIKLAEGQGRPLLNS

[Na+].[Na+].[Na+].[O]=[V]([O-])([O-])[O-] [sodium orthovanadate, Sodium orthovanadate]
IC50 [1]: 250 nM

CN[C@@H]1C[C@H]2O[C@@](C)([C@@H]1OC)n1c3ccccc3c3c4c(c5c6ccccc6n2c5c31)C(=O)NC4 [staurosporine]
Inhibition of Src phosphorylation of SHPS-1 peptide (formation of FRET partnership with SHP2-GFP) (Src kinase): fail to form a FRET partnership
